Converted amounts (≈) assume the structure as drawn.
Tests used:
[1] = system: S. aureus; test: MIC, broth microdilution, S. aureus; type: cell-based; details: Staphylococcus aureus
Description: (§1) Bacteria were cultured in cation-adjusted Mueller Hinton Broth (for strains in Tables 1-3) or Brain Heart Infusion broth (for Enterococcus faecium) or Tryptic Soy Broth (all other bacteria) in a 96-well plate at 37° C. for at least 20 hours. The MIC was classified as the lowest concentration where no visual growth of bacteria was observed. The minimum bactericidal concentration (MBC) was tested by spotting 4 μL from wells with no growth onto Tryptic Soy Agar (TSA) plates. Plates were incubated at 37° C. for at least 18 hours before recording the MBC.

[2] = system: MRSA ATCC 33592; test: MIC, broth microdilution, MRSA ATCC 33592; type: cell-based, methicillin-resistant S. aureus; details: Staphylococcus aureus
Description: All MRSA isolates were acquired from BEI Resources. The remaining bacteria were purchased from the American Type Culture Collection (ATCC).
as §1

[3] = system: Neisseria gonorrhea strain 181; test: MIC against Neisseria gonorrhea strain 181; type: cell-based
Description: as §1

MIC [1] [µg/mL] | MIC [2] [µg/mL] | MIC [3] [µg/mL] | MIC ([1]; 20 h) [µg/mL] | MIC ([2]; 20 h) [µg/mL] | Structure (SMILES)
2 (≈ 5.22 µM) | 1 (≈ 2.61 µM) |  |  |  | O=C(Nc1nnc(C2CCCC2)o1)c1ccc(S(F)(F)(F)(F)F)cc1 [HSGN-2143, N-(5-cyclopentyl-1,3,4-oxadiazol-2-yl)-4-(pentafluoro-16-sulfaneyl)benzamide]
16 (≈ 40.5 µM) | 8 (≈ 20.2 µM) |  |  |  | COc1ccc(-c2nnc(NC(=O)c3ccc(SC(F)(F)F)cc3)o2)cc1 [HSGN-207, N-(5-(4-methoxyphenyl)-1,3,4-oxadiazol-2-yl)-4-((trifluoromethyl)thio)benzamide]
0.0625 (≈ 0.16 µM) | 0.0625 (≈ 0.16 µM) |  |  |  | N#Cc1cccc(-c2nnc(NC(=O)c3ccc(SC(F)(F)F)cc3)o2)c1 [HSGN-283, N-(5-(3-cyanophenyl)-1,3,4-oxadiazol-2-yl)-4-((trifluoromethyl)thio)benzamide]
1 (≈ 2.74 µM) | 1 (≈ 2.74 µM) |  |  |  | O=C(Nc1nnc(-c2ccccc2)o1)c1ccc(SC(F)(F)F)cc1 [HSGN-280, N-(5-phenyl-1,3,4-oxadiazol-2-yl)-4-((trifluoromethyl)thio)benzamide]
32 (≈ 83.5 µM) | 32 (≈ 83.5 µM) |  |  |  | O=C(Nc1nnc(C(F)(F)F)o1)c1ccc(S(F)(F)(F)(F)F)cc1 [HSGN-2141, 4-(pentafluoro-λ^6-sulfaneyl)-N-(5-(trifluoromethyl)-1,3,4-oxadiazol-2-yl)benzamide]
0.5 (≈ 1.3 µM) | 0.5 (≈ 1.3 µM) |  |  |  | O=C(Nc1nnc(-c2ccccc2F)o1)c1ccc(SC(F)(F)F)cc1 [HSGN-2114, N-(5-(2-fluorophenyl)-1,3,4-oxadiazol-2-yl)-4-((trifluoromethyl)thio)benzamide]
0.25 (≈ 0.579 µM) | 0.25 (≈ 0.579 µM) |  |  |  | O=C(Nc1nnc(-c2ccc(Cl)s2)o1)c1ccc(S(F)(F)(F)(F)F)cc1 [HSGN-2113, N-(5-(5-chlorothiophen-2-yl)-1,3,4-oxadiazol-2-yl)-4-(pentafluoro-λ^6-sulfaneyl)benzamide]
0.0625 (≈ 0.156 µM) | 0.0625 (≈ 0.156 µM) |  |  |  | O=C(Nc1nnc(-c2ccc(Cl)cc2)o1)c1ccc(SC(F)(F)F)cc1 [HSGN-282, N-(5-(4-chlorophenyl)-1,3,4-oxadiazol-2-yl)-4-((trifluoromethyl)thio)benzamide]
0.5 (≈ 1.17 µM) | 0.5 (≈ 1.17 µM) |  |  |  | O=C(Nc1nnc(-c2cccc(Cl)c2)o1)c1cccc(S(F)(F)(F)(F)F)c1 [HSGN-2112, N-(5-(3-chlorophenyl)-1,3,4-oxadiazol-2-yl)-3-(pentafluoro-λ^6-sulfaneyl)benzamide]
0.0625 (≈ 0.163 µM) | 0.0625 (≈ 0.163 µM) |  |  |  | O=C(Nc1nnc(-c2ccc(F)cc2)o1)c1ccc(SC(F)(F)F)cc1 [HSGN-281, N-(5-(4-fluorophenyl)-1,3,4-oxadiazol-2-yl)-4-((trifluoromethyl)thio)benzamide]
1 (≈ 3.04 µM) | 1 (≈ 3.04 µM) |  |  |  | Cc1nnc(NC(=O)c2ccc(S(F)(F)(F)(F)F)cc2)o1 [HSGN-2140, N-(5-methyl-1,3,4-oxadiazol-2-yl)-4-(pentafluoro-λ^6-sulfaneyl)benzamide]
> 64 | > 64 |  |  |  | O=S(=O)(Nc1nnc(-c2cccc(Cl)c2)o1)c1ccc(S(F)(F)(F)(F)F)cc1 [HSGN-255, N-(5-(3-chlorophenyl)-1,3,4-oxadiazol-2-yl)-4-(pentafluoro-δ6-sulfaneyl)benzenesulfonamide]
> 128 | > 128 |  |  |  | O=C(Nc1nnn(Cc2ccccc2)n1)c1ccc(S(F)(F)(F)(F)F)cc1 [HSGN-2136, N-(2-benzyl-2H-tetrazol-5-yl)-4-(pentafluoro-λ^6-sulfaneyl)benzamide]
2 (≈ 4.65 µM) | 1 (≈ 2.33 µM) |  |  |  | COc1ccc(Cl)cc1-c1nnc(NC(=O)c2ccc(SC(F)(F)F)cc2)o1 [HSGN-252, N-(5-(5-chloro-2-methoxyphenyl)-1,3,4-oxadiazol-2-yl)-4-((trifluoromethyl)thio)benzamide]
1 (≈ 2.8 µM) | 0.5 (≈ 1.4 µM) |  |  |  | CCCc1nnc(NC(=O)c2ccc(S(F)(F)(F)(F)F)cc2)o1 [HSGN-2142, 4-(pentafluoro-λ^6-sulfaneyl)-N-(5-propyl-1,3,4-oxadiazol-2-yl)benzamide]
1 (≈ 2.5 µM) | 1 (≈ 2.5 µM) |  |  |  | O=C(Nc1nnc(-c2cccc(Cl)c2)o1)c1cccc(SC(F)(F)F)c1 [HSGN-2111, N-(5-(3-chlorophenyl)-1,3,4-oxadiazol-2-yl)-3-((trifluoromethyl)thio)benzamide]
0.5 (≈ 1.25 µM) | 0.5 (≈ 1.25 µM) |  |  |  | O=C(Nc1nnc(-c2ccccc2Cl)o1)c1ccc(SC(F)(F)F)cc1 [HSGN-2115, N-(5-(2-chlorophenyl)-1,3,4-oxadiazol-2-yl)-4-((trifluoromethyl)thio)benzamide]
16 (≈ 37.3 µM) | 16 (≈ 37.3 µM) |  |  |  | O=C(Nc1nnc(-c2cccc(Cl)c2)o1)c1ccc(OC(F)(F)F)c([N+](=O)[O-])c1 [HSGN-262, N-(5-(3-chlorophenyl)-1,3,4-oxadiazol-2-yl)-3-nitro-4-(trifluoromethoxy)benzamide]
> 64 | > 64 |  |  |  | O=S(=O)(Nc1nnc(-c2cccc(Cl)c2)o1)c1ccc(SC(F)(F)F)cc1 [HSGN-256, N-(5-(3-chlorophenyl)-1,3,4-oxadiazol-2-yl)-4-((trifluoromethyl)thio)benzenesulfonamide]
0.5 (≈ 1.16 µM) | 0.5 (≈ 1.16 µM) |  |  |  | COc1cc(Cl)cc(-c2nnc(NC(=O)c3ccc(SC(F)(F)F)cc3)o2)c1 [HSGN-266, N-(5-(3-chloro-5-methoxyphenyl)-1,3,4-oxadiazol-2-yl)-4-((trifluoromethyl)thio)benzamide]
32 (≈ 87.4 µM) | 32 (≈ 87.4 µM) |  |  |  | O=C(Nc1nnc(-c2cccnc2)o1)c1ccc(SC(F)(F)F)cc1 [HSGN-206, N-(5-(pyridin-3-yl)-1,3,4-oxadiazol-2-yl)-4-((trifluoromethyl)thio)benzamide]

Further lines, the compound ahead of its results:

Structure (SMILES) | MIC [1] [µg/mL] | MIC [2] [µg/mL] | MIC [3] [µg/mL] | MIC ([1]; 20 h) [µg/mL] | MIC ([2]; 20 h) [µg/mL]
O=C(Nc1nnc(-c2cccs2)o1)c1cccc(C(F)(F)F)n1 [HSGN-184, N-(5-(thiophen-2-yl)-1,3,4-oxadiazol-2-yl)-6-(trifluoromethyl)picolinamide] | 16 (≈ 47 µM) | 16 (≈ 47 µM) |  |  | 
O=C(Nc1nnc(-c2cccs2)o1)c1ccc(C(F)(F)F)o1 [HSGN-169, N-(5-(thiophen-2-yl)-1,3,4-oxadiazol-2-yl)-5-(trifluoromethyl)furan-2-carboxamide] | > 64 | > 64 |  |  | 
O=C(Nc1nnc(-c2cccs2)o1)c1cnc(C(F)(F)F)nc1 [HSGN-190, N-(5-(thiophen-2-yl)-1,3,4-oxadiazol-2-yl)-2-(trifluoromethyl)pyrimidine-5-carboxamide] | 32 (≈ 93.8 µM) | 32 (≈ 93.8 µM) |  |  | 
CC[C@H]1OC(=O)[C@H](C)[C@@H](O[C@H]2C[C@@](C)(OC)[C@@H](O)[C@H](C)O2)[C@H](C)[C@@H](O[C@@H]2O[C@H](C)C[C@H](N(C)C)[C@H]2O)[C@](C)(O)C[C@@H](C)CN(C)[C@H](C)[C@@H](O)[C@]1(C)O [Azithromycin, reference compound] |  |  | 256 (≈ 342 µM) |  | 
O=C(Nc1nnc(-c2cccs2)o1)c1ccc(C(F)(F)F)cn1 [HSGN-172, N-(5-(thiophen-2-yl)-1,3,4-oxadiazol-2-yl)-5-(trifluoromethyl)picolinamide] | 64 (≈ 188 µM) | 32 (≈ 94 µM) |  |  | 
O=C(Nc1nnc(-c2cccs2)o1)c1ccc(SC(F)F)cc1 [HSGN-250, 4-((difluoromethyl)thio)-N-(5-(thiophen-2-yl)-1,3,4-oxadiazol-2-yl)benzamide] | 4 (≈ 11.3 µM) | 2 (≈ 5.66 µM) |  |  | 
CSc1ccc(C(=O)Nc2nnc(-c3cccs3)o2)cc1 [HSGN-251, 4-(methylthio)-N-(5-(thiophen-2-yl)-1,3,4-oxadiazol-2-yl)benzamide] | 16 (≈ 50.4 µM) | 8 (≈ 25.2 µM) |  |  | 
O=C(Nc1nnc(-c2ccc(C(F)(F)F)cc2)o1)c1ccc(OC(F)(F)F)cc1 [HSGN-220, 4-(trifluoromethoxy)-N-(5-(4-(trifluoromethyl)phenyl)-1,3,4-oxadiazol-2-yl)benzamide] | 0.125 (≈ 0.3 µM) | 0.25 (≈ 0.599 µM) |  |  | 
O=C(Nc1nnc(-c2cccs2)o1)c1ncc(C(F)(F)F)s1 [HSGN-168, N-(5-(thiophen-2-yl)-1,3,4-oxadiazol-2-yl)-5-(trifluoromethyl)thiazole-2-carboxamide] | 16 (≈ 46.2 µM) | 8 (≈ 23.1 µM) |  |  | 
O=C(Nc1cnn(-c2ccccc2)c1)c1ccc(S(F)(F)(F)(F)F)cc1 [HSGN-2135, 4-(pentafluoro-λ^6-sulfaneyl)-N-(1-phenyl-1H-pyrazol-4-yl)benzamide] | > 128 | > 128 |  |  | 
O=C(Nc1nnc(-c2cccs2)o1)c1ccc(OC(F)F)cc1 [HSGN-143, 4-(difluoromethoxy)-N-(5-(thiophen-2-yl)-1,3,4-oxadiazol-2-yl)benzamide] | 32 (≈ 94.9 µM) | 32 (≈ 94.9 µM) |  |  | 
O=C(Nc1nnc(-c2cccs2)o1)c1ccc(C(F)(F)F)nc1 [HSGN-171, N-(5-(thiophen-2-yl)-1,3,4-oxadiazol-2-yl)-6-(trifluoromethyl)nicotinamide] | 16 (≈ 47 µM) | 8 (≈ 23.5 µM) |  |  | 
O=C(Nc1nnc(-c2cccs2)o1)c1cc(C(F)(F)F)n[nH]1 [HSGN-183, N-(5-(thiophen-2-yl)-1,3,4-oxadiazol-2-yl)-3-(trifluoromethyl)-1H-pyrazole-5-carboxamide] | > 64 | > 64 |  |  | 
Cc1ccc(-c2nnc(NC(=O)c3ccc(SC(F)(F)F)cc3)o2)s1 [HSGN-258, N-(5-(5-methylthiophen-2-yl)-1,3,4-oxadiazol-2-yl)-4-((trifluoromethyl)thio)benzamide] | 2 (≈ 5.19 µM) | 2 (≈ 5.19 µM) |  |  | 
O=C(Nc1nnc(-c2cccs2)o1)c1ccc(C(F)(F)F)s1 [HSGN-170] | 4 (≈ 11.6 µM) | 2 (≈ 5.79 µM) |  |  | 
O=C(Nc1noc(-c2ccc(C(F)(F)F)cc2)n1)c1ccc(SC(F)(F)F)cc1 [HSGN-257, N-(5-(4-(trifluoromethyl)phenyl)-1,2,4-oxadiazol-3-yl)-4-((trifluoromethyl)thio)benzamide] | > 64 | > 64 |  |  | 
FC(F)(F)Sc1ccc(-n2cc(-c3nnc(-c4cccc(Cl)c4)o3)nn2)cc1 [HSGN-260] |  |  |  | > 64 | > 64

Source: US20220249447A1, “CF3-, OCF3-, SCF3-, and SF5-Containing Antibacterial Agents” (Purdue Research Foundation, priority 2019, published 2022)
